Values of other authors in patent publication US6593300B1, “(3R)-3-amino-4-carboxybutyraldehyde derivatives inhibiting the release of interleukin-1/beta” (Gyogyszerkutato Intezet Kft., priority 1997, dated 2003).

Columns and labels:
[1] = target: T1, ICE (IL-1β converting enzyme) (Homo sapiens, UniProt P29466); details: literature reports
T1 sequence (P29466 120-297): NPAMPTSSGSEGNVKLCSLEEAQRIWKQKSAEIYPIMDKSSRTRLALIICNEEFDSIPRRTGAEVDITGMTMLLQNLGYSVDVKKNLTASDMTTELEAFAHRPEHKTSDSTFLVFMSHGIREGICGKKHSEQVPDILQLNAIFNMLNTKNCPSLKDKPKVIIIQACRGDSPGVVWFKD
T1 sequence (P29466 317-404): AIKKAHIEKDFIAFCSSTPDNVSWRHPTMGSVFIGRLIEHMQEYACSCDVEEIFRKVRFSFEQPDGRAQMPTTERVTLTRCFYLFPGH

ICE = target: T2, ICE (Mus musculus, UniProt P29452); details: "tissue chamber" model, LPS induced fever or septic shock models
T2 construct: in the mouse, in the “tissue chamber” model as well as in lipopolysaccharide (LPS) induced fever or septic shock models; host or cells: mouse (whole animal, endogenous enzyme)
T2 sequence (P29452 119-296 limits assumed): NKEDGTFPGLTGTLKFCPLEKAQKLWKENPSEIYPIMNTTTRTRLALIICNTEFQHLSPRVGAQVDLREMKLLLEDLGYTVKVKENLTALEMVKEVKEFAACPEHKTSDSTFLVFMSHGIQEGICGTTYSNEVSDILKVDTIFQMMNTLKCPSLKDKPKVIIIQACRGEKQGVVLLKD
T2 sequence (P29452 315-402 limits assumed): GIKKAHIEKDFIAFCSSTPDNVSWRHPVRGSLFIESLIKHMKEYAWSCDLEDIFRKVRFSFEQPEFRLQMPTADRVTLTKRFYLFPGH

| in vivo efficacy (ICE) | Compound | ICE inhibiting effect [1] |
| --- | --- | --- |
|  | O=c1oc(Cl)c(Cl)c2ccccc12 [3,4-dichloro-isocoumarine] | inhibited |
|  | CC(C)C[C@H](NC(=O)[C@H]1O[C@@H]1C(=O)O)C(=O)NCCCCN=C(N)N [Example E64] | not inhibited |
|  | O=C(O)CC(CC(=O)COC(=O)c1c(Cl)cccc1Cl)NC(=O)OCc1ccccc1 (centres unmarked) [Z-AhAsp-CH2DCB, Z-NH—CH(CH2COOH)—CH2—CO—CH2DCB] | ineffective |
|  | O=C(O)C[C@H](NC(=O)OCc1ccccc1)C(=O)COC(=O)c1c(Cl)cccc1Cl [Z-Asp-CH2DCB, Z-NH—CH(CH2COOH)—CO—CH2DCB] | significant ICE inhibiting effect |
| confirmed | Ac-Tyr-Val-Ala-Asp-H: first reversible inhibitor of ICE, tetrapeptide aldehyde |  |
